For 71 molecules, EC50, IC50 and outcome results are on record in PubChem BioAssay AID179 (DTP/NCI, 2004).

The test system of the experiment is CEM cells HIV-1 protection, formazan growth assay. The experiment can be described thus: NCI AIDS Antiviral Assay. Conditions: for IC50: measured here: growth of uninfected CEM cells. On the procedure: The ability of compounds to protect human CEM cells from HIV-1 infection is measured as a screen for new compounds capable of inhibiting the HIV virus. Five concentrations of drug were tested on uninfected and infected cells and cell growth was measured using a soluble formazan assay. […] Compounds that provided at least 50% protection were retested. Compounds that provided at least 50% protection on retest were listed as moderately active. Compounds that reproducibly provided 100% protection were listed as confirmed active. […] Note that the inability to provide protection could be due to toxicity.

Structures are written as SMILES. “And” between values parts separate entries of the source, which are not always exact repeats. Equal entries are not always repeated. The source made the active and inactive calls.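 Rule for the calls: active = compounds giving half or more protection of infected cells from virus-caused growth loss, again on retest; inactive = the rest.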

Take `C[N+](C)(C)CCS(=O)(=O)[O-]`: the EC50 (in general, the concentration that produces a half-maximal response) is above 200 µM and the IC50 – broadly, the concentration needed to halve the response being measured – is above 200 µM.
Take `COc1ccccc1OCc1nnc(SCC(=O)O)n1-c1ccccc1`: the EC50 was above 676 µM and the IC50 is above 676 µM.
Regarding `C=C1CC(COc2ccc3ccc(=O)oc3c2)(c2ccccc2)OC1=O` (stereo not given), the EC50 is above 2 µM and the IC50 was 0.724 µM.
In the case of `C/C(=N\NS(=O)(=O)c1ccc(C)cc1)C(CN1CCCCC1)C(c1ccccc1)c1c(O)c2ccccc2oc1=O` (stereo not given), the EC50 was above 58.9 µM and the IC50 is 49 µM.
As to `O=C(Oc1ccccc1)N(CCO)C(c1ccccc1)C(O)c1ccccc1` (stereo not given), the EC50 is above 200 µM and the half-inhibitory concentration (IC50) came to 5.25 µM.
The corresponding values for `Cc1ccc2c(c1)-c1nc(N)c(C#N)c(-c3ccc(Cl)cc3)c1CCS2(=O)=O` are above 200 µM and 29.5 µM.
In the same order, the values of `O=C(CC1=NC2NN(c3ccccc3)C(=O)C2=C1CC(=O)c1cccc([N+](=O)[O-])c1)c1cccc([N+](=O)[O-])c1` (stereo not given) are above 129 µM and above 129 µM.
The corresponding values for `O=c1cc(-c2ccccc2)oc2cc(OCCCCCCCCCCOc3ccc4c(=O)cc(-c5ccccc5)oc4c3)ccc12` are above 1.7 µM and above 1.7 µM.
In the case of `O=c1c2ccccc2sc2ccccc12`, the EC50 is above 200 µM and the half-inhibitory concentration (IC50) is above 200 µM.
With `CCCc1cc(=O)oc2c3c(c4c(c12)OC(C)(C)CC4)O[C@H](C)C(C)[C@@H]3O` (stereo not given in full), the EC50 is above 200 µM and the IC50 was 162 µM.
In the same order, the values of `CC1SC2=NC3=C(c4ccccc4C3=O)C(c3ccc(Br)cc3)N2C1=O` (stereo not given) are above 32.4 µM and above 32.4 µM.
For the molecule `COC(=O)Nc1nc2ccc(C(=O)c3ccccc3)cc2[nH]1`, the EC50 was above 2 µM and the IC50 is 0.0692 µM.
The corresponding values for `COc1ccc(C2CC(=O)c3c(cc(OC)c(OC)c3OC)O2)cc1` (stereo not given) are above 200 µM and 20.9 µM.
Turning to `NC(Cc1c[nH]c2ccccc12)P(=O)(O)O` (stereo not given), the EC50 was above 200 µM and the IC50 is above 200 µM.
Take `O=Cc1ccc2c(c1I)OCO2`: the EC50 was above 67.6 µM and the IC50 came to 38.9 µM.
In the same order, the values of `CCCCCCn1c(SCC)c2ccccc2c1-c1nc(F)nc(F)n1` are above 2.75 µM and above 2.75 µM.
The corresponding values for `Nc1ncnc2c1ncn2C1CCC(CP(=O)(O)O)C1` (stereo not given) are above 200 µM and above 200 µM.
In the same order, the values of `C/C(=N\N=C(/C)C1CC(CC(=O)O)C1(C)C)C1CC(CC(=O)O)C1(C)C` (stereo not given) are above 186 µM and above 186 µM.
Take `C1CCN(C2OC3C(COC3N3CCCCC3)OC2OC2CCO[C@@H]2N2CCCCC2)CC1` (stereo not given in full): the EC50 was above 38.9 µM and the IC50 was found to be 3.39 µM.
Turning to `OCC(O)C(O)C(O)c1nn(-c2ccc(Cl)cc2)c2nc3cc(Cl)c(Cl)cc3nc12` (stereo not given), the result was inactive.
Consider `Cc1cn(C2CC([Se]c3ccccc3)C(CO)O2)c(=O)[nH]c1=O` (stereo not given), for which the EC50 was above 200 µM and the IC50 was found to be 95.5 µM.
In the same order, the values of `CCO[C@H]1OC(=O)[C@@H]2C(c3ccc(F)cc3)=NO[C@H]12` are above 135 µM and above 135 µM.
As for `O=C1CC[C@H]2[C@@H]3N1c1ccccc1[C@@]31CCN3C/C(=C/CBr)[C@@H]2C[C@H]31`, the EC50 is above 75.9 µM and the IC50 is above 75.9 µM.
Consider `CCOC(=O)C1=C(C)NC2=C(C(=O)CC(C)(C)C2)C1CCSC` (stereo not given), for which the EC50 was above 200 µM and the IC50 is above 200 µM.
On to `CNC(=O)c1cc2nc3ccccc3c(=O)n2c2ccccc12`, for which the EC50 was above 100 µM and the IC50 is above 100 µM.
Turning to `CNc1nnnn1C1OC(CO)C(O)C1O` (stereo not given), the EC50 was above 1070 µM and the concentration for half-maximal inhibition (IC50) is above 1070 µM.
For `CN(CC(=O)O)S(=O)(=O)c1ccc2ccccc2c1`, the result was inactive.
For `Cc1nc(Nc2ccccc2)sc1C(=O)NNC(N)=O`, the EC50 is above 151 µM and the IC50 worked out at 63.1 µM.
Regarding `CCCCN1C(=O)c2cc(=O)[nH]c(O)c2C1C` (stereo not given), the EC50 is above 1050 µM and the half-maximal inhibitory concentration (IC50) amounted to 676 µM.
The corresponding values for `CC(C)n1c2c(c3ccccc3c1=O)C(=O)c1ccccc1-2` are above 64.6 µM and above 64.6 µM.
In the same order, the values of `COc1cc(CC2COC(=O)[C@@H]2Cc2ccc(O)c(OC)c2)ccc1O` (stereo not given in full) are above 200 µM and 95.5 µM.
The corresponding values for `O=C(CC(CC(=O)Oc1c(Br)cc(Br)cc1C(=O)O)C(=O)Oc1c(Br)cc(Br)cc1C(=O)O)Oc1c(Br)cc(Br)cc1C(=O)O` are above 245 µM and 85.1 µM.
Turning to `C[n+]1c2ccccc2c(/C=N\NS(=O)(=O)c2ccc(Cl)cc2)c2ccccc21`, the result was inactive.
As for `C=Cc1cncc(C#N)c1CCc1c(C#N)cncc1C=C`, the EC50 was above 34.7 µM and the IC50 is above 34.7 µM.
Turning to `CC(=O)NC(CC(C)C(C)=O)C(=O)O` (stereo not given), the EC50 was above 200 µM and the IC50 was above 200 µM.
With `COC(=O)C12C=CC(C(=O)OC)(CC1)n1c(=O)n(-c3ccccc3)c(=O)n12`, the EC50 is above 200 µM and the IC50 is above 200 µM.
In the case of `Cc1cc2c(c(S(=O)(=O)c3ccccc3[N+](=O)[O-])c1)NCCC2`, the EC50 is 1.55 µM and the IC50 came out at 21.4 µM.
As for `O=C1CC23CCCCCCCCCCC2(C1)CC(=O)C3` (stereo not given), the outcome was inactive.
As for `C1CCSCCCCCSCCCCCSCCCCCSCC1`, the EC50 is above 200 µM and the IC50 was 44.7 µM.
In the same order, the values of `CN(C)CCSc1nnc(-c2cccs2)c2ccccc12` are above 794 µM and 40.7 µM.
For `O=C1Nc2ccccc2S/C1=C/c1ccccc1`, the EC50 was above 20.4 µM and the IC50 was above 20.4 µM.
`CCOc1ncn(-c2ccc(NC(=S)Nc3cnccn3)cc2)n1`: the concentration giving a half-maximal response (EC50) was 129 µM and the IC50 was above 200 µM.
The corresponding values for `C/C(CC(=O)Nc1ccc(C)cc1C)=N/N=C(N)N` are above 191 µM and above 191 µM.
The corresponding values for `COc1ccccc1C(=O)NCC1CCCN2CCCCC12` (stereo not given) are above 200 µM and above 200 µM.
In the same order, the values of `NCCCN(CCCN)CCCNCc1c2ccccc2c(CNCCCN(CCCN)CCCN)c2ccccc12` are 4.79 µM and 16.6 µM.
For `CC1(C)Cc2ccccc2C(C)(Cl)C(=O)N1` (stereo not given), the EC50 is 191 µM and the IC50 is above 200 µM.
Take `COc1ccc2cc3[n+](cc2c1OC)CCc1cc2c(cc1-3)OCO2`: the EC50 was above 339 µM; the half-inhibitory concentration (IC50) was 6.76 µM and 3.31 µM.
Regarding `CCOC(=O)/C(=C/c1ccc(N(C)C)cc1)N(CC)CC`, the EC50 is above 46.8 µM and the IC50 was above 46.8 µM.
As for `COC(=O)C(Cc1c[nH]c2ccccc12)NP(=O)(O)OCC1OC(n2ccc(N)nc2=O)C(O)C1O` (stereo not given), the EC50 is above 200 µM and the IC50 amounted to 5.25 µM.
For `C[N+]12CN3CN(C1)S(=O)(=O)N(C3)C2`, the outcome was inactive.
On to `C1CCCC(N2N=NC3C4CC(C5N=NN(C6CCCCCC6)C45)C32)CC1` (stereo not given), for which the EC50 was above 200 µM and the half-inhibitory concentration (IC50) is above 200 µM.
With `Cn1c(=O)c2nc3n(c2n(C)c1=O)C(=O)C(C(=O)O)N=N3` (stereo not given), the EC50 is above 200 µM and the concentration for half-maximal inhibition (IC50) is above 200 µM.
For the molecule `ClC1=NSC(Cl)=NS1`, the EC50 was above 53.7 µM and the IC50 was above 53.7 µM.
Regarding `CCN(CC)CCCn1c(=O)c2ccccc2n2c3c(=O)n(C)c(=O)n(C)c3nc12`, the EC50 was above 200 µM and the IC50 is 1.05 µM.
In the same order, the values of `C=CCOC(=O)Cn1cc(C)c(=O)[nH]c1=O` are above 200 µM and above 200 µM.
The corresponding values for `COCO[C@@H]1C[C@H]2C(=O)N(COC)c3ccccc3C(=O)N2C1` are above 200 µM and above 200 µM.
In the same order, the values of `O=c1nc2cc(-c3ccccc3)[nH]c2nn1-c1c(Cl)cc(Cl)cc1Cl` are above 91.2 µM and 1.17 µM.
As for `CC1(C2=CCCCC2)CCC(=O)NC1=O` (stereo not given), the EC50 is above 200 µM and the IC50 is above 200 µM.
In the case of `COC1/C=C/OC2(C)Oc3c(C)c(O)c4c(O)c(c(C=NN5CCCCCCCC5)c(O)c4c3C2=O)NC(=O)/C(C)=C/C=C/C(C)C(O)C(C)C(O)C(C)C(OC(C)=O)C1C` (stereo not given), the result was inactive.
For the molecule `O=C(O)CCSC(=S)NCCNC(=S)SCCC(=O)O`, the EC50 was above 708 µM and the IC50 amounted to 437 µM.
Regarding `COc1ccc2c3c([nH]c2c1)CCN(CCCC(=O)c1ccc(F)cc1)C3`, the EC50 is above 200 µM and the IC50 was 32.4 µM.
For the molecule `Cc1ccc(/C=N/Nc2ccc3ccccc3n2)s1`, the EC50 was above 200 µM and the IC50 is 21.4 µM.
`OC1=C(O)c2ccccc21`: the EC50 is above 1860 µM and the half-inhibitory concentration (IC50) is above 1860 µM.
For the molecule `N#Cc1c(=O)c2ccccc2n2c1[nH]c1ccccc12`, the EC50 was above 200 µM and the IC50 came to 77.6 µM.
In the same order, the values of `CCN=C(NC(=O)c1ccc(Cl)cc1)SCSC(=NCC)NC(=O)c1ccc(Cl)cc1` are above 200 µM and 72.4 µM.
The corresponding values for `CCOC(=O)CCC1(CCC(=O)OCC)CCCCCCCCC(CCC(=O)OCC)(CCC(=O)OCC)C(=O)C1=O` are above 200 µM and above 200 µM.
As for `O=[N+]([O-])c1ccccc1Sc1ccccc1[N+](=O)[O-]`, the EC50 was above 7.94 µM.
For the molecule `COc1cc(OC)c2nc(C)c3c(c2c1)NCC3`, the EC50 was above 200 µM and the half-inhibitory concentration (IC50) turned out to be 3.98 µM.
For the molecule `N=c1c2c(C(N)=O)cn(C3OC(CO)C(O)C3O)c2ncn1O` (stereo not given), the EC50 was above 0.2 µM and the IC50 stood at 0.191 µM.
For `O=C(NC1C/C(=N/O)c2c(Br)sc(Br)c21)C(F)(F)F` (stereo not given), the EC50 was above 200 µM and the IC50 came out at 53.7 µM.
In the same order, the values of `COC(=O)c1cc(C(=O)Nc2cc(C(=CCC[C@H]3CC[C@@]4(C)[C@@H](CC[C@@H]5[C@@H]4CC[C@]4(C)[C@@H](C(C)CCCC(C)C)CC[C@@H]54)C3)c3cc(NC(=O)c4ccc(OC)c(C(=O)OC)c4)c(OC)c(C(=O)OC)c3)cc(C(=O)OC)c2OC)ccc1OC` (stereo not given in full) are above 100 µM and above 100 µM.
